Experimental data taken from patent publication US20080306076A1, “MODULATION OF CHEMOSENSORY RECEPTORS AND LIGANDS ASSOCIATED THEREWITH” (SENOMYX, INC., priority 2007, published 2008).

Experiments:
[1] = target: T1, hT1R1/hT1R3 (Homo sapiens, UniProt Q7RTX1); test: In vitro hT1R1/hT1R3 enhancement assay (FLIPR): shift of the monosodium glutamate EC50 (EC50R); assay type: cell-based; details: EC50 of monosodium glutamate without / with test compound
T1 construct: expressed in transfected cells; host or cells: HEK293 derivative stably expressing Gα15, clone I-17, mifepristone-induced
T1 sequence (Q7RTX1 21-841): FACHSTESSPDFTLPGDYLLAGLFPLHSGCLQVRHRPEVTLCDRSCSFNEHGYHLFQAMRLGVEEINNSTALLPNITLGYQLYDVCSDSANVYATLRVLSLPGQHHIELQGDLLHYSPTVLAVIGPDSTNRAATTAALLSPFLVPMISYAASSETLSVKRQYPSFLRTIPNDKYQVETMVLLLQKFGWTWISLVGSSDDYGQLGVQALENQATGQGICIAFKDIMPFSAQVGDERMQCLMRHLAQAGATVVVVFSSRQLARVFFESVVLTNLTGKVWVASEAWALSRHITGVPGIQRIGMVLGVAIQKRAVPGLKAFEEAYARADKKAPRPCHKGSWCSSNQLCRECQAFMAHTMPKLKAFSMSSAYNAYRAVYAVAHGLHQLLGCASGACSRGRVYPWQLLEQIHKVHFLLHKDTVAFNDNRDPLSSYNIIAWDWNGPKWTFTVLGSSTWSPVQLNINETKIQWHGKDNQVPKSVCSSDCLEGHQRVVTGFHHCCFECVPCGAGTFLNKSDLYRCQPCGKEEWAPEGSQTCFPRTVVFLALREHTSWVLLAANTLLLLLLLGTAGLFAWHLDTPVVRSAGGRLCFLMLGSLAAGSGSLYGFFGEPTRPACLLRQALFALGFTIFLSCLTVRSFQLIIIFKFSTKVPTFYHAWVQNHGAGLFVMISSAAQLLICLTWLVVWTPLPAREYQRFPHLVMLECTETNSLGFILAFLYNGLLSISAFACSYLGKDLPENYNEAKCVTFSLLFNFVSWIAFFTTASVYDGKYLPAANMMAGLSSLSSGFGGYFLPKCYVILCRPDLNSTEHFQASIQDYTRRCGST
T1 sequence (Q7RTX0 21-852 partner): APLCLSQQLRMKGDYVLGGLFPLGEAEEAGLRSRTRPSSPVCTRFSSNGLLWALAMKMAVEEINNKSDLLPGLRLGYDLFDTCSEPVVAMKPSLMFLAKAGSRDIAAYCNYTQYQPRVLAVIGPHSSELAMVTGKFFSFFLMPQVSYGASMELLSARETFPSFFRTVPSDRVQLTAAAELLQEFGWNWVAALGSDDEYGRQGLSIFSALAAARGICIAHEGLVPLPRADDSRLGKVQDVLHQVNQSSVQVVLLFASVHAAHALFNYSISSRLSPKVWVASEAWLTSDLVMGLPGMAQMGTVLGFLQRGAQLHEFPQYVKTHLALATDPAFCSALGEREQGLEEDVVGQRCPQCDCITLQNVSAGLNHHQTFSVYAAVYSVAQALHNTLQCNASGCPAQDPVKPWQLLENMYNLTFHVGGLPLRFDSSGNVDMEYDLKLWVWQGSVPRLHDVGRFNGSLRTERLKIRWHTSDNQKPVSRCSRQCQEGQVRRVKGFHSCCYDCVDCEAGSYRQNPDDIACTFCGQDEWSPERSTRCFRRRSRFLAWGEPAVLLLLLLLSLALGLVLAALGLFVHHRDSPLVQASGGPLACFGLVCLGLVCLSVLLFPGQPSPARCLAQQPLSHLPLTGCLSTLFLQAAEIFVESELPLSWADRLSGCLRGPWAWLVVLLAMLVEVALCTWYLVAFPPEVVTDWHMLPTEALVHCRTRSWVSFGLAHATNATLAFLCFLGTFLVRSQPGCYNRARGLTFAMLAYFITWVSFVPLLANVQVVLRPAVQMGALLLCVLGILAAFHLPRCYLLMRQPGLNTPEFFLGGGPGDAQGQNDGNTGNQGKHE
Procedure: An HEK293 cell line derivative (See e.g., Chandrashekar, et al., Cell (2000) 100: 703-711) which stably expresses Gα15 and hT1R1/hT1R3 under an inducible promoter (see e.g., International Publication No. WO 03/001876 A2) was used in association with identifying compounds with umami tasting properties.
Compounds were initially selected based on activity in the hT1R1/hT1R3-HEK293-Gα15 cell line. Activity was determined using an automated fluorometric imaging assay on a FLIPR instrument (Fluorometric Intensity Plate Reader, Molecular Devices, Sunnyvale, Calif.) (designated FLIPR assay). Cells from one clone (designated clone I-17) were seeded into 384-well plates (at approximately 48,000 cells per well) in a medium containing Dulbecco's modified Eagle's medium (DMEM) supplemented with GlutaMAX (Invitrogen, Carlsbad, Calif.), 10% dialyzed fetal bovine serum (Invitrogen, Carlsbad, Calif.), 100 Units/ml Penicillin G, 100 μg/ml Streptomycin (Invitrogen, Carlsbad, Calif.) and 60 pM mifepristone (to induce expression of hT1R1/hT1R3 (see e.g., International Publication No. WO 03/001876 A2).
I-17 cells were grown for 48 hours at 37° C. 1-17 cells were then loaded with the calcium dye Fluo-3AM (Molecular Probes, Eugene, Oreg.), 4 μM in a phosphate buffered saline (D-PBS) (Invitrogen, Carlsbad, Calif.), for 1.5 hours at room temperature. After replacement with 25 μl D-PBS, stimulation was performed in the FLIPR instrument and at room temperature by the addition of 25 μl D-PBS supplemented with different stimuli at concentrations corresponding to twice the desired final level.
Receptor activity was quantified by determining the maximal fluorescence increases (using a 480 nm excitation and 535 nm emission) after normalization to basal fluorescence intensity measured before stimulation. For dose-responses analysis, stimuli were presented in duplicates at 10 different concentrations ranging from 1.5 nM to 3 μM.
Activities were normalized to the response obtained with 60 mM monosodium glutamate, a concentration that elicits maximum receptor response. EC50s (concentration of compound that causes 50% activation of receptor) were determined using a non-linear regression algorithm, where the Hill slope, bottom asymptotes and top asymptotes were allow to vary. Identical results were obtained when analyzing the dose-response data using commercially available software for non-linear regression analysis such as GraphPad PRISM (San Diego, Calif.).
Experiments were also conducted to determine if test compounds can enhance the effect of monosodium glutamate on hT1R1/hT1R3 activity. In this assay, increasing concentrations of monosodium glutamate (ranging from 12 μM to 81 mM) were presented, in duplicates, in the presence or absence of a fixed concentration of the test compound. Typical compound concentrations tested were 100 μM, 30 μM, 10 μM, 3 μM, 1 μM, 0.3 μM, 0.1 μM and 0.03 μM. The relative efficacy of compounds at enhancing the receptor was determined by the calculating the magnitude of a shift in the EC50 for monosodium glutamate.
Enhancement was defined as a ratio (EC50R) corresponding to the EC50 of monosodium glutamate, determined in the absence of the test compound, divided by the EC50 of monosodium glutamate, determined in the presence of the test compound. In some embodiments, compounds have an EC50R between about 0.7 and about 100. In other embodiments, compounds have an EC50R between about 1.25 and about 75. In still other embodiments, compounds have an EC50R between about 1.50 and about 60. Assay results for compounds are disclosed in the table below.

[2] = system: un-induced I-17 cells; test: FLIPR assay on un-induced I-17 cells (no receptor expression); assay type: cell-based; details: monosodium glutamate
Procedure: In order to determine the dependency of hT1R1/hT1R3 for the cell response to different stimuli, selected compounds were subjected to a similar analysis on I-17 cells that had not been induced for receptor expression with mifepristone (designated as un-induced I-17 cells). […] Compounds were presented to un-induced umami cells at […]—or three times the maximum stimulation used in the dose-response analysis.

EC50 ratio ([1]; test compound 30 μM)	EC50 ratio ([1]; test compound 100 μM)	Compound	functional response in FLIPR assay [2]
1.21	2.22	O=C(COc1ccccc1)Nc1nc(O)c2ncn([C@@H]3O[C@H](COP(=O)(O)O)[C@@H](O)[C@H]3O)c2n1 [Compound 5]	
		N[C@@H](CCC(=O)O)C(=O)[O-].[Na+] [monosodium glutamate]	do not show any functional response
1.07	1.19	Cc1cccc(C(=O)Nc2nc(O)c3ncn([C@@H]4O[C@H](COP(=O)(O)O)[C@@H](O)[C@H]4O)c3n2)c1 [Compound 4]	
1.67	12.91	COc1ccccc1C(=O)Nc1nc(O)c2ncn([C@@H]3O[C@H](COP(=O)(O)O)[C@@H](O)[C@H]3O)c2n1 [Compound 1]	
